Assay: wn = mass fraction of the nth substance listed
Conditions: Liquid; for viscosity: Falling or rolling sphere viscometry; for mass density: Vibrating tube method

CN(C)CCO [2-(N,N-dimethylamino)ethanol] + O
Conditions	mass density, w1 = 0.1005 [kg/m3]	mass density, w1 = 0.202 [kg/m3]	mass density, w1 = 0.3005 [kg/m3]	mass density, w1 = 0.3995 [kg/m3]	viscosity, w1 = 0.1005 [mPa·s]	viscosity, w1 = 0.202 [mPa·s]	viscosity, w1 = 0.3005 [mPa·s]	viscosity, w1 = 0.3995 [mPa·s]
373.15 K, 30000 kPa	964.4	956.3	947.9	938.5	0.3711	0.4702	0.6099	0.7742
373.15 K, 40000 kPa	968.7	960.9	952.4	943.3	0.3746	0.4771	0.6239	0.7998
373.15 K, 50000 kPa	972.8	964.9	956.6	947.6	–	–	–	–
373.15 K, 60000 kPa	976.8	968.9	960.9	952.1	0.3833	0.4923	0.6493	0.8409
373.15 K, 70000 kPa	980.9	973	965	956.2	–	–	–	–
373.15 K, 80000 kPa	984.7	976.9	969.1	960.4	0.3916	0.5073	0.6735	0.8827
373.15 K, 90000 kPa	988.6	980.6	972.8	964.3	–	–	–	–
373.15 K, 100000 kPa	992.1	984.3	976.4	968.1	0.3984	0.5213	0.6978	0.9306
373.15 K, 110000 kPa	995.9	988	980.3	971.9	–	–	–	–
373.15 K, 120000 kPa	999.5	991.6	983.8	975.6	–	–	–	–
373.15 K, 130000 kPa	1003	995	987.3	979.1	–	–	–	–
373.15 K, 140000 kPa	1006.3	998.4	990.7	982.6	–	–	–	–
393.15 K, 100 kPa	934.5	925.2	915	903.9	–	–	–	–
393.15 K, 500 kPa	934.9	925.5	915.5	904.3	–	–	–	–
393.15 K, 1000 kPa	935.1	925.7	915.7	904.6	–	–	–	–
393.15 K, 2000 kPa	935.6	926.3	916.3	905.2	–	–	–	–
393.15 K, 5000 kPa	937.1	927.9	917.9	907	0.2917	0.3533	0.4325	0.5209
393.15 K, 10000 kPa	939.7	930.5	920.8	910	0.2952	0.3557	0.4367	0.5259
393.15 K, 15000 kPa	942.1	933	923.4	912.8	0.2973	0.3585	0.4425	0.5368
393.15 K, 20000 kPa	944.6	935.6	926.1	915.7	0.2998	0.3624	0.4483	0.5458
393.15 K, 25000 kPa	–	–	–	–	0.3019	0.366	0.4536	0.5538
393.15 K, 30000 kPa	949.3	940.5	931.2	921	0.3036	0.3687	0.4597	0.5613
393.15 K, 40000 kPa	953.9	945.2	936.2	926.3	0.3078	0.3736	0.4697	0.578
393.15 K, 50000 kPa	958.2	949.6	940.8	931	–	–	–	–
393.15 K, 60000 kPa	962.6	954.1	945.3	935.9	0.3147	0.3862	0.489	0.6086
393.15 K, 70000 kPa	966.9	958.5	949.8	940.5	–	–	–	–
393.15 K, 80000 kPa	971	962.4	953.9	944.8	0.322	0.3985	0.5076	0.6407
393.15 K, 90000 kPa	975	966.6	958.1	949.2	–	–	–	–
393.15 K, 100000 kPa	978.8	970.5	962.2	953.2	0.3308	0.4097	0.5265	0.6716
393.15 K, 110000 kPa	982.7	974.3	966	957.3	–	–	–	–
393.15 K, 120000 kPa	986.5	978.2	969.9	961.2	–	–	–	–
393.15 K, 130000 kPa	990	981.7	973.5	964.9	–	–	–	–
393.15 K, 140000 kPa	993.7	985.3	977.2	968.9	–	–	–	–

— the NIST ThermoML archive (doi:10.1016/j.jct.2017.05.001)
